Columns and labels:
prpD = biological target: T1, prpD (Glutamicibacter nicotianae, UniProt A0ABQ0RQ59); assay: OTC depletion by HPLC after adding […] mg expressed protein extract; assay type: biochemical; conditions: LB broth without strain OTC-16, 30 C, 180 rpm, 4 days, product not identified, not described as purified
T1 construct: gene ANI01nite_31520; E. coli BL21(DE3) soluble extract, no purification described; about 55 kDa; primers encode N-term MINHPVR, C-term PKGLF

uaZ = biological target: T2, uaZ (Glutamicibacter nicotianae, UniProt A0ABQ0RHS3); assay: as above; assay type: biochemical; conditions: LB broth without strain OTC-16, 30 C, 180 rpm, 4 days, product not identified, not described as purified
T2 construct: gene ANI01nite_05670; E. coli BL21(DE3) soluble extract, no purification described; about 34 kDa; primers encode N-term MTTEITAPAD, C-term IWANIPAFI
T2 sequence (A0ABQ0RHS3 entry or part of it): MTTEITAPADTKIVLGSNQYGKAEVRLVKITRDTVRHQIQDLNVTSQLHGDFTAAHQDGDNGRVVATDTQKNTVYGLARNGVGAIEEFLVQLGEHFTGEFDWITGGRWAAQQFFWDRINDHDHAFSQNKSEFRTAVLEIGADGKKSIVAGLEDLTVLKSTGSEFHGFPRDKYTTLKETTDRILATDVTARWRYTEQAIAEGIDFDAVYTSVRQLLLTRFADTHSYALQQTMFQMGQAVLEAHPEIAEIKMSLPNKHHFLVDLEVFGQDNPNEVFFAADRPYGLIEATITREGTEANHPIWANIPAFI

T1 sequence (A0ABQ0RQ59 entry or part of it): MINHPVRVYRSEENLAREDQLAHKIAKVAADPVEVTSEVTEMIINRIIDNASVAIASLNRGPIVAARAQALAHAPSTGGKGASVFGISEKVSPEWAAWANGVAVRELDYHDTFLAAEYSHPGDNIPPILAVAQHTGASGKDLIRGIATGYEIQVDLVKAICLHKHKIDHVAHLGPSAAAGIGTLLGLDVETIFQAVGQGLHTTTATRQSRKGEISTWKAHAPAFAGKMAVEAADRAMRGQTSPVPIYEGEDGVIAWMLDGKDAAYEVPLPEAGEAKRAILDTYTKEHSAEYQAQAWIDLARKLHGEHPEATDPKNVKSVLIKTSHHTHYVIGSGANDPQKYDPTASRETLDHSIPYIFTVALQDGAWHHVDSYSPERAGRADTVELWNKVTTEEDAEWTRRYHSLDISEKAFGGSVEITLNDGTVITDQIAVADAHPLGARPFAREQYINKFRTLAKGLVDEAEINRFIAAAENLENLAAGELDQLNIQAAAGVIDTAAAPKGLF

Q: Which results are given for `CN(C)[C@@H]1C(=O)C(C(N)=O)=C(O)[C@@]2(O)C(=O)C3=C(O)c4c(O)cccc4[C@@](C)(O)[C@H]3[C@H](O)[C@@H]12` [oxytetracycline]?
A: OTC depletion by HPLC after adding 0.1 mg expressed protein extract (prpD): the degradation proteins prpD and uaZ exhibited degradation effects on OTC; OTC depletion by HPLC after adding 0.1 mg expressed protein extract (uaZ): the degradation proteins prpD and uaZ exhibited degradation effects on OTC
